Experimental findings from US20240150360A1 (THE REGENTS OF THE UNIVERSITY OF MICHIGAN, priority 2021, published 2024) are described below.

Assay [1] has as its target T1, CBP (Homo sapiens, UniProt Q92793).
T1 construct: endogenous in cells; host or cells: 22Rv1 (ATCC CRL-2505) human prostate cancer cells
The experiment in a line: CBP degradation in 22Rv1 cells (5 h). The format is cell-based. To be noted: 22Rv1 cells, 5 h; for Dmax: 22Rv1, 5 h, read-out: CBP Degradation (22Rv1, 5 h) DCmax. The text has this:
(§1) Biological Assays. […] Cells with 3-8 passages after purchase were used in experiments.

For assay [2], the target named is T2, P300 (Homo sapiens, UniProt Q09472).
T2 construct: endogenous in cells; host or cells: 22Rv1 (ATCC CRL-2505) human prostate cancer cells
The experiment in a line: P300 degradation in 22Rv1 cells (5 h). It counts as cell-based. The conditions noted are these: 22Rv1 cells, 5 h; for Dmax: read-out: P300 Degradation (22Rv1, 5 h) DCmax.
Excerpt: as §1

Assay [3] deals with 22Rv1 cells. The experiment in a line: Cell growth inhibition assay (CellTiter-Glo) in 22Rv1. It counts as cell-based, human. To be noted: Homo sapiens, 22Rv1, 96 h, 22Rv1 cells, 96 h incubation; read-out: Cell Growth Inhibition (IC50) 22Rv1. The method in brief:
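22Rv1 prostate cancer cells (passages 3-8, DMEM with 10% FBS) were seeded at 4000 cells/well with compound, 3-fold dilutions from 10 μM final. After 96 h at 37° C and 5% CO2, growth was read by CellTiter-Glo 2.0 luminescence.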

Assay [4] has as its system HL60. The experiment in a line: Cell growth inhibition in HL60. The format is cell-based. To be noted: Homo sapiens, HL-60, HL60 cells; read-out: Cell Growth Inhibition (IC50) HL60.

T2 sequence (Q09472 whole entry): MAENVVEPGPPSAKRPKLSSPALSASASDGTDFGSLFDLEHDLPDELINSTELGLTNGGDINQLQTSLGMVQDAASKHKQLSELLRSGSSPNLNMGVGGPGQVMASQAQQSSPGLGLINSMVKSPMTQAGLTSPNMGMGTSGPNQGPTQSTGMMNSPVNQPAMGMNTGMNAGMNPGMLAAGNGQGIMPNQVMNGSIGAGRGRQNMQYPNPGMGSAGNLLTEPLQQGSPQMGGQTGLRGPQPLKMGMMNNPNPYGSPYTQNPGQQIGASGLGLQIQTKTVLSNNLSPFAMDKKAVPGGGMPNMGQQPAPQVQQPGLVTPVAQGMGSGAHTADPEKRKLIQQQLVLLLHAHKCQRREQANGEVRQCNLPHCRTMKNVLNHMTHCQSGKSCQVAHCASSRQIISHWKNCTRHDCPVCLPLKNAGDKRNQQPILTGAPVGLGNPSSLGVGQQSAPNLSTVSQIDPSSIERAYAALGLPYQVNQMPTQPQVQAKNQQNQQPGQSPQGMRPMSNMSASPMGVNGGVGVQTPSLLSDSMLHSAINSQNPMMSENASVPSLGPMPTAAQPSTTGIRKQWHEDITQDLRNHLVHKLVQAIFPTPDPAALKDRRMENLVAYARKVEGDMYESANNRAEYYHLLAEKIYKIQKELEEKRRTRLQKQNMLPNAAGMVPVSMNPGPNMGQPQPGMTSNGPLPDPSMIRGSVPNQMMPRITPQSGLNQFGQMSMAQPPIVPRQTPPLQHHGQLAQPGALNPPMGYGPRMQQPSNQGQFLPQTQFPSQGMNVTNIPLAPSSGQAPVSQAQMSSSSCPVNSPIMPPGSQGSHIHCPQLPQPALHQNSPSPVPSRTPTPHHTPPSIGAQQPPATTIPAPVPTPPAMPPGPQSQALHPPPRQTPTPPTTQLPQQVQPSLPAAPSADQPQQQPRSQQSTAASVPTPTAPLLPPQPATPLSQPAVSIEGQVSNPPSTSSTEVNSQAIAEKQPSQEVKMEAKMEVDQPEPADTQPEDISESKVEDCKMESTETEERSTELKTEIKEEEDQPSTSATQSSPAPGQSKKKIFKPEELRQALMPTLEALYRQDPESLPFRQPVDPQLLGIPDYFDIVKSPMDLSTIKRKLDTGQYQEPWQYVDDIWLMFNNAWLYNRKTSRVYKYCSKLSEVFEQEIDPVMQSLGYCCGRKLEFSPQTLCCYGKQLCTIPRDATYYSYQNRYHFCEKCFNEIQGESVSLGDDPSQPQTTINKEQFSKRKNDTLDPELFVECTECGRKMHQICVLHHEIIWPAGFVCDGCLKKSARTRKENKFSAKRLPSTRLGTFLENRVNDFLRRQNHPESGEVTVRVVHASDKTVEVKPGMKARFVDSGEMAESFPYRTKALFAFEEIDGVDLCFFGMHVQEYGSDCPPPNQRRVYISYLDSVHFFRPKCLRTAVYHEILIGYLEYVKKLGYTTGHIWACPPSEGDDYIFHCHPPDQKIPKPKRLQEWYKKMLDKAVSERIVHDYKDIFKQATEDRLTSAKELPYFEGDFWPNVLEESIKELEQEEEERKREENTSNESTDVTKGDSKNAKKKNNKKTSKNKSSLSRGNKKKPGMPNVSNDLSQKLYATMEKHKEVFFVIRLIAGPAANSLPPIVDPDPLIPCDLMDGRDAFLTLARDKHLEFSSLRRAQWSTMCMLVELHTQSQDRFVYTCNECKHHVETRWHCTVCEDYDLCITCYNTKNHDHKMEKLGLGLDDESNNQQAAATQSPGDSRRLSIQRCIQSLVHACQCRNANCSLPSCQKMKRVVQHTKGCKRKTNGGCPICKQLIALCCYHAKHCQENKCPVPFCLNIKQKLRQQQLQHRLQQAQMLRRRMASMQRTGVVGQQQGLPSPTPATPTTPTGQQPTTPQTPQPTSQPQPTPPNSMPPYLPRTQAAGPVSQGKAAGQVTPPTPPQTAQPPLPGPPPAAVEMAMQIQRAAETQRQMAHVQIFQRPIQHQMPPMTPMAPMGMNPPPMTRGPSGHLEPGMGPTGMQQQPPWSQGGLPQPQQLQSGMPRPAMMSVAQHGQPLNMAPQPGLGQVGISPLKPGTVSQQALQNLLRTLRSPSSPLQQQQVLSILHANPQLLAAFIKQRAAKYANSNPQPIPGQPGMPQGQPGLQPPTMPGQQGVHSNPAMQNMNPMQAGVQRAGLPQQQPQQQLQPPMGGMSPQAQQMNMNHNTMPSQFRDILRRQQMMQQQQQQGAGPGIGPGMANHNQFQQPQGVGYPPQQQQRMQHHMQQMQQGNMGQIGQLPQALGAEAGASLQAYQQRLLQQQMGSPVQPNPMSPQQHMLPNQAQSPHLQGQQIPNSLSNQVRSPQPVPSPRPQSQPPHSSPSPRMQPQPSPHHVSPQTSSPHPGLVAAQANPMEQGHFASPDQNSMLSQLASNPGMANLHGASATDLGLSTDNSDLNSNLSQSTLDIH
T1 sequence (Q92793 whole entry): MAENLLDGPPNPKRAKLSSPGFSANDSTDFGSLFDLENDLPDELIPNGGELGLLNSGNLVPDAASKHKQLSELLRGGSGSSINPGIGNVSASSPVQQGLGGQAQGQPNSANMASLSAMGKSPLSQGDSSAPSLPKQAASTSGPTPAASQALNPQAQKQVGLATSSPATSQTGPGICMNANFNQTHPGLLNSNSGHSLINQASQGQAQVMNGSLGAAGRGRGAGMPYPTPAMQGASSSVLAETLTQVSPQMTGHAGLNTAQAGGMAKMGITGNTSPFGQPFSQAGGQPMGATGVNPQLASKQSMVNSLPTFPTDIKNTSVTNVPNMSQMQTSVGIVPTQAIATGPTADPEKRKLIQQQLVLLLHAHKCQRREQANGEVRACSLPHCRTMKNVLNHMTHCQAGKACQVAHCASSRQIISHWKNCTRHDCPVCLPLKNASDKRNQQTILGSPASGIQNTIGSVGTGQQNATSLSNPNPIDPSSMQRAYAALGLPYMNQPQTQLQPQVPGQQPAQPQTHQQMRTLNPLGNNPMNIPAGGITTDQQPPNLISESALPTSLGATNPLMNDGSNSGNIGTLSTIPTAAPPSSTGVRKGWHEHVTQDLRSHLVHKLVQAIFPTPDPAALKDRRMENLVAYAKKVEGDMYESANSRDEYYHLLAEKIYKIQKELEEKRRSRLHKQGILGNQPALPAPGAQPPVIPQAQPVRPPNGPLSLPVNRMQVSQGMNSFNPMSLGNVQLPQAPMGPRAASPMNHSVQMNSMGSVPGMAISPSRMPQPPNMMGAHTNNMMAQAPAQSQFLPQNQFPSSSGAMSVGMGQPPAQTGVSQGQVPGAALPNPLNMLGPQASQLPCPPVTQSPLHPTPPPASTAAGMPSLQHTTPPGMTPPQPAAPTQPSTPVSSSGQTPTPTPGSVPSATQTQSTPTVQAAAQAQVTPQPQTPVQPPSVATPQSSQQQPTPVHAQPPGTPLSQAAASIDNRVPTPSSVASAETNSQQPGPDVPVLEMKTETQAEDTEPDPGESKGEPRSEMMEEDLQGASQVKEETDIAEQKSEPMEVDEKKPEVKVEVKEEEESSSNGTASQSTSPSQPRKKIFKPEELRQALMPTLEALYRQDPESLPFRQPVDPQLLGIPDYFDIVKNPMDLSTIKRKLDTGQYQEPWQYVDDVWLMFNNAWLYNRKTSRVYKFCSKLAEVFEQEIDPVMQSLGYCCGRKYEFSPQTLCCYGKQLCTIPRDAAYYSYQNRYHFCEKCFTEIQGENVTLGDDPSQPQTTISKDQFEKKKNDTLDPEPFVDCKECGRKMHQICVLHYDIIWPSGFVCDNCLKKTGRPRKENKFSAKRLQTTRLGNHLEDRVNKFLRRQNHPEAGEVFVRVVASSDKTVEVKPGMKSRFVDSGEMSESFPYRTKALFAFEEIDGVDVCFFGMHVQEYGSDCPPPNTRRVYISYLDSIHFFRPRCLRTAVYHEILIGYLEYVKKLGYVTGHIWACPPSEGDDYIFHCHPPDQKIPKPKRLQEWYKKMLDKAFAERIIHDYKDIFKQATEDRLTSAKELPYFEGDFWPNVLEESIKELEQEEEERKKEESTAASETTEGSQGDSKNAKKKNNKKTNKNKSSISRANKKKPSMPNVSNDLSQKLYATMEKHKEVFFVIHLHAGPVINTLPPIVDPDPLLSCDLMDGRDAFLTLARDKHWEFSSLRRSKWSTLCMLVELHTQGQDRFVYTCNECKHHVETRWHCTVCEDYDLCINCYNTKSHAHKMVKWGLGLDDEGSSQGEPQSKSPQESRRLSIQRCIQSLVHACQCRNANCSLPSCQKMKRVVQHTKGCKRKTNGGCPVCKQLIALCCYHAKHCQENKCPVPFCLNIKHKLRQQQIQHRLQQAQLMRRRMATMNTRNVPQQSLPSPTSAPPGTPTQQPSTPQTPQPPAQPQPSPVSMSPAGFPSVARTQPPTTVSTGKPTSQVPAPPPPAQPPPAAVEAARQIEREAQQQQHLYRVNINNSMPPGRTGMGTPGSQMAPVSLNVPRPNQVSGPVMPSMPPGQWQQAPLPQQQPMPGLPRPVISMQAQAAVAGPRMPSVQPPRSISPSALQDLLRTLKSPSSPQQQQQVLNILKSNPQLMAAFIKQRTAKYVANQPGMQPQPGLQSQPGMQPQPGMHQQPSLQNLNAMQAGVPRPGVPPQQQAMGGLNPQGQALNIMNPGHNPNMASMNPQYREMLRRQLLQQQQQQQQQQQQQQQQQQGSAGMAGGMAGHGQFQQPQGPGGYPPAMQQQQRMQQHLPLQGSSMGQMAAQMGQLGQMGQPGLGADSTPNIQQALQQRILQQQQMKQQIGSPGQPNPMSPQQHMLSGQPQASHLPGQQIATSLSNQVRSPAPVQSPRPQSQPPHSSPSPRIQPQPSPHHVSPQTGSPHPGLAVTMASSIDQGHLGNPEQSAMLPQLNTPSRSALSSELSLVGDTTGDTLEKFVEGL

For the molecule `Cc1noc(C)c1-c1ccc2c(c1)nc([C@@H]1CCCC(=O)N1c1ccc(F)c(F)c1)n2C1CCN(C(=O)CCCN2Cc3cc4c(cc3C2)C(=O)N(C2CCC(=O)NC2=O)C4=O)CC1` (stereo partly drawn) [CP-066, 6-(4-(4-(2-((S)-1-(3,4-difluorophenyl)-6-oxopiperidin-2-yl)-5-(3,5-dimethylisoxazol-4-yl)-1H-benzo[d]imidazol-1-yl)piperidin-1-yl)-4-oxobutyl)-2-(2,6-dioxopiperidin-3-yl)-6,7-dihydropyrrolo[3,4-f]isoindole-1,3(2H,5H)-dione], the Dmax in assay [1] and in assay [2] was less than 50% each time. For the same molecule, the DC50 in assay [1] and in assay [2] was more than 1 µM throughout. Besides, the IC50 in assay [3] and in assay [4] was more than 10 µM in each case.

With `CC(=O)N1CCc2c(c(-c3cccc4ccccc34)nn2C2CCN(C(=O)CN3Cc4cc5c(cc4C3)C(=O)N(C3CCC(=O)NC3=O)C5=O)CC2)C1` (stereo not drawn) [CP-075, 6-(2-(4-(5-acetyl-3-(naphthalen-1-yl)-4,5,6,7-tetrahydro-1H-pyrazolo[4,3-c]pyridin-1-yl)piperidin-1-yl)-2-oxoethyl)-2-(2,6-dioxopiperidin-3-yl)-6,7-dihydropyrrolo[3,4-f]isoindole-1,3(2H,5H)-dione], the Dmax in assay [1] and in assay [2] was more than 90% throughout. The DC50 in assay [1] and in assay [2] was less than 0.01 µM each time. Further, the IC50 in assay [3] and in assay [4] was less than 1 µM each time.

On to `CC(=O)N1CCc2c(c(-c3cccc4ccccc34)nn2C2CCN(C(=O)CN3CCc4cc5c(cc4C3)C(=O)N(C3CCC(=O)NC3=O)C5=O)CC2)C1` (stereo not drawn) [CP-076, 6-(2-(4-(5-acetyl-3-(naphthalen-1-yl)-4,5,6,7-tetrahydro-1H-pyrazolo[4,3-c]pyridin-1-yl)piperidin-1-yl)-2-oxoethyl)-2-(2,6-dioxopiperidin-3-yl)-5,6,7,8-tetrahydro-1H-pyrrolo[3,4-g]isoquinoline-1,3(2H)-dione], for which the Dmax in assay [1] was more than 90%; in assay [2], more than 70%. Moreover, the DC50 in assay [1] and in assay [2] was less than 0.01 µM each time. The IC50 in assay [3] is more than 10 µM; in assay [4], less than 1 µM.

Turning to `CC(=O)N1CCc2c(c(N3CCCc4cc5c(cc43)CCCC5)nn2C2CCN(C(=O)CN3Cc4cc5c(cc4C3)C(=O)N(C3CCC(=O)NC3=O)C5=O)CC2)C1` (stereo not drawn) [CP-077, 6-(2-(4-(5-acetyl-3-(3,4,6,7,8,9-hexahydrobenzo[g]quinolin-1(2H)-yl)-4,5,6,7-tetrahydro-1H-pyrazolo[4,3-c]pyridin-1-yl)piperidin-1-yl)-2-oxoethyl)-2-(2,6-dioxopiperidin-3-yl)-6,7-dihydropyrrolo[3,4-f]isoindole-1,3(2H,5H)-dione], the Dmax in assay [1] and in assay [2] was more than 90% throughout. Further, the DC50 in assay [1] and in assay [2] was less than 0.01 µM each time. Also, the IC50 in assay [3] and in assay [4] was less than 1 µM in each case.

In the case of `CC(=O)N1CCc2c(c(N3CCCc4cc5c(cc43)CCCC5)nn2C2CCN(C(=O)CN3CCc4cc5c(cc4C3)C(=O)N(C3CCC(=O)NC3=O)C5=O)CC2)C1` (stereo not drawn) [CP-078, 6-(2-(4-(5-acetyl-3-(3,4,6,7,8,9-hexahydrobenzo[g]quinolin-1(2H)-yl)-4,5,6,7-tetrahydro-1H-pyrazolo[4,3-c]pyridin-1-yl)piperidin-1-yl)-2-oxoethyl)-2-(2,6-dioxopiperidin-3-yl)-5,6,7,8-tetrahydro-1H-pyrrolo[3,4-g]isoquinoline-1,3(2H)-dione], the Dmax in assay [1] is more than 90%; in assay [2] it was more than 70%. For the same molecule, the 50% degradation concentration (DC50) in assay [1] and in assay [2] was less than 0.01 µM in each case. Besides, the IC50 in assay [3] and in assay [4] was less than 1 µM in each case.

Regarding `CC(=O)N1CCc2c(c(N3CCCc4cc5c(cc43)C(C)CCC5)nn2C2CCN(C(=O)CN3Cc4cc5c(cc4C3)C(=O)N(C3CCC(=O)NC3=O)C5=O)CC2)C1` (stereo not drawn) [CP-079, 6-(2-(4-(5-acetyl-3-(9-methyl-3,4,6,7,8,9-hexahydrobenzo[g]quinolin-1(2H)-yl)-4,5,6,7-tetrahydro-1H-pyrazolo[4,3-c]pyridin-1-yl)piperidin-1-yl)-2-oxoethyl)-2-(2,6-dioxopiperidin-3-yl)-6,7-dihydropyrrolo[3,4-f]isoindole-1,3(2H,5H)-dione], the Dmax in assay [1] was more than 90%; in assay [2], more than 70%. Further, the DC50 in assay [1] and in assay [2] was less than 0.1 µM each time. Besides, the IC50 was less than 1 µM in assay [3] and less than 0.1 µM in assay [4].

With `CC(=O)N1CCc2cc3c(cc2C1)CCCN3c1nn(C2CCN(C(=O)CN3Cc4cc5c(cc4C3)C(=O)N(C3CCC(=O)NC3=O)C5=O)CC2)c2c1CN(C(C)=O)CC2` (stereo not drawn) [CP-080, 6-(2-(4-(5-acetyl-3-(7-acetyl-3,4,6,7,8,9-hexahydropyrido[3,4-g]quinolin-1(2H)-yl)-4,5,6,7-tetrahydro-1H-pyrazolo[4,3-c]pyridin-1-yl)piperidin-1-yl)-2-oxoethyl)-2-(2,6-dioxopiperidin-3-yl)-6,7-dihydropyrrolo[3,4-f]isoindole-1,3(2H,5H)-dione], the Dmax in assay [1] and in assay [2] was more than 70% throughout. In addition, the half-maximal degradation concentration (DC50) in assay [1] and in assay [2] was less than 0.01 µM in each case. Further, the IC50 in assay [3] and in assay [4] was more than 10 µM each time.

Regarding `CC(=O)N1CCc2c(ccc3c2CCCN3c2nn(C3CCN(C(=O)CN4Cc5cc6c(cc5C4)C(=O)N(C4CCC(=O)NC4=O)C6=O)CC3)c3c2CN(C(C)=O)CC3)C1` (stereo not drawn) [CP-081, 6-(2-(4-(5-acetyl-3-(3-acetyl-1,3,4,8,9,10-hexahydro-3,7-phenanthrolin-7(2H)-yl)-4,5,6,7-tetrahydro-1H-pyrazolo[4,3-c]pyridin-1-yl)piperidin-1-yl)-2-oxoethyl)-2-(2,6-dioxopiperidin-3-yl)-6,7-dihydropyrrolo[3,4-f]isoindole-1,3(2H,5H)-dione], the Dmax in assay [1] and in assay [2] was less than 50% each time. For the same molecule, the DC50 in assay [1] and in assay [2] was more than 1 µM each time. In addition, the IC50 in assay [3] and in assay [4] was more than 10 µM throughout.

In the case of `CC(=O)N1CCc2c(c(-c3cccc4ccncc34)nn2C2CCN(C(=O)CN3Cc4cc5c(cc4C3)C(=O)N(C3CCC(=O)NC3=O)C5=O)CC2)C1` (stereo not drawn) [CP-082, 6-(2-(4-(5-acetyl-3-(isoquinolin-8-yl)-4,5,6,7-tetrahydro-1H-pyrazolo[4,3-c]pyridin-1-yl)piperidin-1-yl)-2-oxoethyl)-2-(2,6-dioxopiperidin-3-yl)-6,7-dihydropyrrolo[3,4-f]isoindole-1,3(2H,5H)-dione], the Dmax in assay [1] and in assay [2] was less than 50% in each case. For the same molecule, the half-maximal degradation concentration (DC50) in assay [1] and in assay [2] was more than 1 µM each time. The IC50 in assay [3] and in assay [4] was more than 10 µM each time.

As to `CC(=O)N1CCc2c(c(N3CCCc4cc5c(cc43)C(C)(C)CCC5)nn2C2CCN(C(=O)CN3Cc4cc5c(cc4C3)C(=O)N(C3CCC(=O)NC3=O)C5=O)CC2)C1` (stereo not drawn) [CP-083, 6-(2-(4-(5-acetyl-3-(9,9-dimethyl-3,4,6,7,8,9-hexahydrobenzo[g]quinolin-1(2H)-yl)-4,5,6,7-tetrahydro-1H-pyrazolo[4,3-c]pyridin-1-yl)piperidin-1-yl)-2-oxoethyl)-2-(2,6-dioxopiperidin-3-yl)-6,7-dihydropyrrolo[3,4-f]isoindole-1,3(2H,5H)-dione], the Dmax in assay [1] and in assay [2] was less than 50% in each case. Further, the DC50 in assay [1] and in assay [2] was more than 1 µM each time. The IC50 in assay [3] and in assay [4] was more than 10 µM in each case.

As for `CC(=O)N1Cc2c(N3CCCc4cc(-c5cnn(C)c5)c(C(F)F)cc43)nn(C3CCN(C(=O)CN4Cc5cc6c(cc5C4)C(=O)N(C4CCC(=O)NC4=O)C6=O)CC3)c2C(C)(C)C1` (stereo not drawn) [CP-084, 6-(2-(4-(5-acetyl-3-(7-(difluoromethyl)-6-(1-methyl-1H-pyrazol-4-yl)-3,4-dihydroquinolin-1(2H)-yl)-7,7-dimethyl-4,5,6,7-tetrahydro-1H-pyrazolo[4,3-c]pyridin-1-yl)piperidin-1-yl)-2-oxoethyl)-2-(2,6-dioxopiperidin-3-yl)-6,7-dihydropyrrolo[3,4-f]isoindole-1,3(2H,5H)-dione], the Dmax in assay [1] and in assay [2] was less than 50% each time. Moreover, the DC50 in assay [1] and in assay [2] was more than 1 µM throughout. Also, the IC50 in assay [3] and in assay [4] was more than 10 µM each time.

With `CC(=O)N1Cc2c(N3CCCc4cc(-c5ccnn5C)c(C(F)F)cc43)nn(C3CCN(C(=O)CN4Cc5cc6c(cc5C4)C(=O)N(C4CCC(=O)NC4=O)C6=O)CC3)c2C(C)(C)C1` (stereo not drawn) [CP-085, 6-(2-(4-(5-acetyl-3-(7-(difluoromethyl)-6-(1-methyl-1H-pyrazol-5-yl)-3,4-dihydroquinolin-1(2H)-yl)-7,7-dimethyl-4,5,6,7-tetrahydro-1H-pyrazolo[4,3-c]pyridin-1-yl)piperidin-1-yl)-2-oxoethyl)-2-(2,6-dioxopiperidin-3-yl)-6,7-dihydropyrrolo[3,4-f]isoindole-1,3(2H,5H)-dione], the Dmax was more than 70% in assay [1] and less than 50% in assay [2]. Also, the results for the DC50 in assay [1] and in assay [2] were less than 0.01 µM and more than 1 µM, respectively. In addition, the half-maximal inhibitory concentration (IC50) in assay [3] and in assay [4] was more than 10 µM in each case.
